According to a melting point compilation (Tetko et al.; mined from patent text by program, amines drawn as free bases though some values may be those of a salt):

Compound | melting point [°C]
CCOC(=O)C(CC(F)(F)CC(C)C1CCC2C3CC=C4CC(OC5CCCCO5)CCC4(C)C3CCC12C)C(=O)OCC (configuration not stated) | 79 to 80
COc1ncc(NS(=O)(=O)c2cccc(Cl)c2Cl)c(OC)n1 | 124 to 126
CN(C(CCn1c(=O)cc(Cl)[nH]c1=O)C(=O)NO)S(=O)(=O)c1ccc(Oc2cccc(Cl)c2)cc1 (configuration not stated) | 168 to 170
CSC(=N[N+](=O)[O-])NCc1cnc(Cl)s1 | 162 to 165
Cc1ccc(N(c2ccc(C)cc2)c2ccc(-c3ccc(N(c4ccc(C)cc4)c4ccc(C)cc4)cc3)cc2)cc1 | 215 to 216
O=Cc1cccc(-c2cnco2)n1 | 151
COc1cc2c(cc1Nc1ncc(Cl)c(N[C@H]3[C@@H](C(N)=O)[C@@H]4C=C[C@H]3C4)n1)CCN(C[C@H](O)C(F)(F)F)CC2 | 120 to 126
Cc1c(C)c2c(c(C)c1N)C(c1ccccc1)CO2 (configuration not stated) | 94 to 95
O=C(O)Cc1ccc2c(c1)CCC(C(F)(F)F)N2 (configuration not stated) | 107 to 108
COc1ccc(Sc2ccncc2)c([N+](=O)[O-])c1 | 57 to 59
COc1ccc(Nc2nc(NC3CCCCCC3)nc(Oc3ccc(C=O)cc3)n2)cc1Cl | 218 to 220
CCCc1c(OCCCOc2cccnc2CCC(=O)OC)ccc(C(C)=O)c1O | 85 to 87
FS(F)(F)(F)(Cl)c1cccc(S(F)(F)(F)(F)Cl)c1 | 82 to 83.5
Cc1nc(Sc2ncccc2C(F)(F)F)sc1CC(=O)O | 195 to 196
CCOC(=O)c1ccc2c(c1)c(C#Cc1ccccc1)nn2CCC#N | 90 to 94
CC(C)CC(CS)C(=O)Nc1cccc(C(=O)O)c1 (configuration not stated) | > 200
COc1cc(OC)c(-c2cc3ccccc3s2)cc1/C=C/C(=O)c1ccc(C(N)=O)cc1 | 240 to 241
Nc1nc2c(s1)CCN(C(=O)c1ccc(NC(=O)c3ccccc3-c3ccccc3)cc1)c1ccccc1-2 | > 250
COC(=O)c1ccccc1S(=O)(=O)NCC#N | 110
Cc1nc(C(N)=O)cn1-c1ccc(Cl)cc1 | 138 to 140
NC(=O)c1cc(Cl)c(Cl)cc1C(=O)O | 197 to 201
O=C(c1cc2cc3oc(=O)[nH]c3cc2o1)N1CCC(OCc2ccccc2)CC1 | 217 to 219
CC(=O)N[C@H]1CC[C@H](CCN2CCN(c3nc(C)cc4occc34)CC2)CC1 | 208
CN(C)C(=O)c1nc(-c2ccccc2)nc2c1c1ccc(F)cc1n2C | 229 to 231

Compound | melting point [°C]
CN(CCO)c1nccc(Oc2ccc(NC(=O)c3cc(F)cc(N4CCOCC4)c3)c3ccccc23)n1 | 100 to 102
CCNc1cccnc1N1CCN(C(=O)c2ccc(C(=O)O)cc2)CC1 | 208 to 209
OC[C@@H]1CC[C@H]2CN(c3ncccn3)CCN2C1 (relative stereo) | 135 to 136
COc1ccc(N2CCN(c3c(C)c(C)c4c(c3C)C(O)(c3ccc(-c5ccccc5)cc3)C(C)(C)O4)CC2)cc1 (configuration not stated) | 182 to 184
CC#CCOc1ccc(S(=O)C(C(=O)NO)C2CCCCC2)cc1 (configuration not stated) | 188
C[Si](C)(CCSCCNC(=O)n1cc(F)c(=O)[nH]c1=O)c1ccccc1 | 90 to 91
NS(=O)(=O)c1ccc(S[C@H]2CC[C@H](O)CC2)s1 | 145 to 147
CCCn1c(=O)c2[nH]c(/C=C/c3cccc(F)c3)nc2n(CCC)c1=O | 265 to 266
COC1CSC2=C(SC1)C(OC(=O)N1CCN(C(=O)C(C)C)CC1)N(c1ccc3ccc(Cl)nc3n1)C2=O (configuration not stated) | 232
CCOC(=O)c1ncn2c1CN(Cc1ccc(OC)cc1OC)C(=O)c1cc(OC)ccc1-2 | 204
Cc1ncoc1CN1CCc2c(c3cccc(F)c3n2C)C1=O | 158 to 161
CCOC(=O)C(=O)Nc1ccc(C(=O)O)cc1NC(=O)C(=O)OCC | 251
CN(C)CCn1c(=O)c2cccc(N)c2c2cnc3cc4c(cc3c21)OCO4 | 223 to 224
Cc1cccnc1Cn1nnc2ccccc21 | 175 to 177
C=CC(=O)NCc1c(-c2ccccc2)n[nH]c1C | 191 to 193
CN(C)C1CCN(Cc2ccc3c(c2)Cc2c(-c4cccs4)n[nH]c2-3)CC1 | 96 to 98
COc1cccc(-c2ccnc3ncnn23)c1 | 163 to 165
CC12CCC3c4ccc(C(=O)O)cc4CCC3C1CCC2C(=O)c1cccs1 (configuration not stated) | 177 to 179
COc1ccc(C(=O)Nc2ccccc2)cc1NCc1cccc(C#N)c1 | 172 to 174
O=c1ccn(-c2cc3[nH]c(=O)c(=O)[nH]c3cc2C(F)(F)F)cc1 | 410 to 420
NCCOc1cccc2c1c1cccc(F)c1n2Cc1ccccc1 | 122 to 123
Cc1nc[nH]c1CSCCNC(=N)NS(N)(=O)=O | 130 to 133
COC(=O)CC(=O)NCc1ccccc1 | 51 to 54
N#Cc1ccc(OCc2ccc(Cl)c(Cl)c2)cc1 | 222 to 223

Compound | melting point [°C]
N#CCc1ccc(-c2ccc(C(CC3CCOCC3)c3ccc(S(=O)(=O)C4CC4)cc3)[nH]2)nc1 (configuration not stated) | 139 to 141
O=C(O)Cc1ccc(CO[N+](=O)[O-])cc1 | 109 to 110
CN(Cc1cc(C(F)(F)F)cc(C(F)(F)F)c1)C(=O)c1ncc2ccccc2c1-c1ccccc1 | 139 to 140
CCOC(=O)Nc1cccc(OC)c1[N+](=O)[O-] | 131 to 132
COc1ccc([N+](=O)[O-])c(NCCO)n1 | 121 to 122
CCOC(=O)C(=CNc1cc(O)cc(O)c1)C(=O)OCC | 190 to 192
Cc1ccc(-c2cc(N)nn2C(=O)OC(C)(C)C)cc1 | 147
CC=C(C)c1ccc(-c2ccccc2F)cc1 | 83 to 85
COC(=O)c1ccc(Cc2csc3ccc(NC(=O)OC4CCCC4)cc23)c(OC)c1 | 163 to 164
COc1ccc(Nc2cccc3c2C(=O)N(C2CCC(=O)NC2=O)C3=O)c(Oc2ccccc2)c1 (configuration not stated) | 142 to 144
COc1cc(CCCC2OC(=O)NC2=O)ccc1OCc1nc(-c2ccc3ccccc3c2)oc1C (configuration not stated) | 173 to 174
O=C(O)c1sc(C(F)(F)F)cc1OCc1ccccc1 | 142 to 144
NC(=O)CCc1ccc([N+](=O)[O-])cc1 | 177 to 178
Cc1nn(CCN)c(C)c1Cc1cc(Cl)cc(Cl)c1 | 70 to 72
CC(C)C(O)(C#C[Si](C)(C)C)c1cncnc1 (configuration not stated) | 117
Cc1ncncc1C(=O)Nc1ccc(-n2nc(C(F)(F)F)cc2C2CC2)nc1 | 159 to 160
CC(C)Nc1ccc([N+](=O)[O-])cc1C(=O)c1ccccc1 | 155
COc1cc(C=CC(=O)C(Cc2ccccc2)C(=O)C=Cc2ccc(O)c(OC)c2)ccc1O (configuration not stated) | 139 to 141
CS(=O)(=O)c1ccc(C2=C(c3ccccc3)C(=O)N(c3ccc(F)cc3)C2=O)c(F)c1 | 198 to 200
CCOC(=O)c1ccc(Cc2ccc3c(c2)OCO3)o1 | 67 to 68
COc1ccc(C=CCC#N)cc1 | 75 to 76
N#CCc1cc(Cl)cc(Cl)c1 | 31 to 32
CC(C)S(=O)(=O)C(C#N)=Cc1c(Cl)n(C)c2ccccc12 | 141
CON=C(C#N)c1ccccc1COc1ccc(Cl)cc1 | 69 to 71
